{
  "source": "patent US8129368B2",
  "about": "“5,6-dihydro-1H-pyridin-2-one compounds” (priority 2008, dated 2012)",
  "tested_on": "HCV Huh-luc/neo-ET replicon cells",
  "assay": "Luciferase-Based HCV Replicon Assay (EC50 (1b))",
  "assay_type": "cell-based",
  "conditions": "Hepatitis C virus, HCV Huh-luc/neo-ET replicon cells, 72 hours, luciferase activity",
  "method": "Luciferase-Based HCV Replicon Assay Protocol (EC50 (1b))\nThe cell culture component of the assay is performed essentially as described by Bartenschlager et al., Hepatology 2002, 35, 694-703, wherein exponentially growing HCV Huh-luc/neo-ET replicon cells were seeded at 6×10^3 cells/well in 96 well assay plate. 24 hours later the cells were treated with various concentrations of compound or combination of compounds in triplicate using both fixed ratios and checkerboard matrices of test agents and cultured for 72 hours. The luciferase activity in the wells was determined using Bright-Glo reagent (Promega, Madison, Wis.) with a luminometer (Wallac 1420 Multilabel HTS Counter Victor 2). The background control was replicon cells treated with 100 nM BILN-2061, an inhibitor of the HCV protease. % Inhibition was determined for each compound concentration in relation to the negative (no compound) control to calculate the EC50(1b).",
  "key": {"[1]": {"conditions": "read-out: EC50(1b) concentration"}},
  "note": "Read-outs that look alike come from different tables or passages of the source.",
  "data": [
    {"compound": "CS(=O)(=O)Nc1ccc2c(c1)S(=O)(=O)NC(C1=C(O)[C@@H]3C4CCC(CC4)[C@@H]3N(Cc3cccc(F)c3)C1=O)=N2", "note": "[Example 14, N-{3-[(2S,7R)-3-(3-Fluoro-benzyl)-6-hydroxy-4-oxo-3-aza-tricyclo[6.2.2.0^2,7]dodec-5-en-5-yl]-1,1-dioxo-1,2-dihydro-1λ^6-benzo[1,2,4]thiadiazin-7-yl}-methanesulfonamide]", "values": [
      {"measurement": "EC50", "setting": "read-out: EC50 (1b)", "value": "< 5", "unit": "nM"},
      {"measurement": "EC50", "setting": "[1]", "value": "< 25", "unit": "nM"}
    ]},
    {"compound": "Cc1ccccc1CN1C(=O)C(C2=Nc3ccc(NS(C)(=O)=O)cc3S(=O)(=O)N2)=C(O)[C@@H]2[C@@H]3CC[C@@H](C3)[C@@H]21", "note": "[Example 29, N-{3-[(1S,2S,7R,8R)-6-Hydroxy-3-(2-methyl-benzyl)-4-oxo-3-aza-tricyclo[6.2.1.0^2,7]undec-5-en-5-yl]-1,1-dioxo-1,2-dihydro-1λ^6-benzo[1,2,4]thiadiazin-7-yl}-methanesulfonamide]", "values": [
      {"measurement": "EC50", "setting": "read-out: EC50 (1b)", "value": "5 to 25", "unit": "nM"},
      {"measurement": "EC50", "setting": "[1]", "value": "< 25", "unit": "nM"}
    ]},
    {"compound": "CS(=O)(=O)Nc1ccc2c(c1)S(=O)(=O)NC(C1=C(O)[C@@H]3C4CCC(CC4)[C@@H]3N(Cc3cc(F)c(F)cc3F)C1=O)=N2", "note": "[Example 26]", "values": [
      {"measurement": "EC50", "setting": "read-out: EC50 (1b)", "value": "5 to 25", "unit": "nM"},
      {"measurement": "EC50", "setting": "[1]", "value": "< 25", "unit": "nM"}
    ]},
    {"compound": "CS(=O)(=O)Nc1ccc2c(c1)S(=O)(=O)N=C(C1=C(O)[C@@H]3C4CCC(CC4)[C@@H]3N(Cc3ccc(F)cc3F)C1=O)N2", "note": "[Example 4, N-{3-[(2S,7R)-3-(2,4-Difluoro-benzyl)-6-hydroxy-4-oxo-3-aza-tricyclo[6.2.2.0^2,7]dodec-5-en-5-yl]-1,1-dioxo-1,4-dihydro-1λ^6-benzo[1,2,4]thiadiazin-7-yl}-methanesulfonamide]", "values": [
      {"measurement": "EC50", "setting": "read-out: EC50 (1b)", "value": "< 5", "unit": "nM"},
      {"measurement": "EC50", "setting": "[1]", "value": "< 25", "unit": "nM"}
    ]},
    {"compound": "CS(=O)(=O)Nc1ccc2c(c1)S(=O)(=O)N=C(C1=C(O)[C@@H]3C4CCC(CC4)[C@@H]3N(Cc3ccc(F)cc3Cl)C1=O)N2", "note": "[Example 5, N-{3-[(2S,7R)-3-(2-Chloro-4-fluoro-benzyl)-6-hydroxy-4-oxo-3-aza-tricyclo[6.2.2.0^2,7]dodec-5-en-5-yl]-1,1-dioxo-1,4-dihydro-1λ^6-benzo[1,2,4]thiadiazin-7-yl}-methanesulfonamide]", "values": [
      {"measurement": "EC50", "setting": "read-out: EC50 (1b)", "value": "5 to 25", "unit": "nM"},
      {"measurement": "EC50", "setting": "[1]", "value": "< 25", "unit": "nM"}
    ]},
    {"compound": "CC(C)(C)CCN1C(=O)C(C2=NS(=O)(=O)c3cc(NS(C)(=O)=O)ccc3N2)=C(O)[C@@H]2C3CCC(CC3)[C@@H]21", "note": "[Example 9, N-{3-[(2S,7R)-3-(3,3-Dimethyl-butyl)-6-hydroxy-4-oxo-3-aza-tricyclo[6.2.2.0^2,7]dodec-5-en-5-yl]-1,1-dioxo-1,4-dihydro-1λ^6-benzo[1,2,4]thiadiazin-7-yl}-methanesulfonamide]", "values": [
      {"measurement": "EC50", "setting": "read-out: EC50 (1b)", "value": "< 5", "unit": "nM"},
      {"measurement": "EC50", "setting": "[1]", "value": "< 25", "unit": "nM"}
    ]},
    {"compound": "CS(=O)(=O)Nc1ccc2c(c1)S(=O)(=O)N=C(C1=C(O)[C@@H]3C4CCC(CC4)[C@@H]3N(Cc3ccc(F)c(F)c3)C1=O)N2", "note": "[Example 10, N-{3-[(2S,7R)-3-(3,4-Difluoro-benzyl)-6-hydroxy-4-oxo-3-aza-tricyclo[6.2.2.0^2,7]dodec-5-en-5-yl]-1,1-dioxo-1,4-dihydro-1λ^6-benzo[1,2,4]thiadiazin-7-yl}-methanesulfonamide]", "values": [
      {"measurement": "EC50", "setting": "read-out: EC50 (1b)", "value": "< 5", "unit": "nM"},
      {"measurement": "EC50", "setting": "[1]", "value": "< 25", "unit": "nM"}
    ]},
    {"compound": "CS(=O)(=O)Nc1ccc2c(c1)S(=O)(=O)NC(C1=C(O)[C@@H]3C4CCC(CC4)[C@@H]3N(Cc3cccs3)C1=O)=N2", "note": "[Example 16, N-{3-[(2S,7R)-6-Hydroxy-4-oxo-3-thiophen-2-ylmethyl-3-aza-tricyclo[6.2.2.0^2,7]dodec-5-en-5-yl]-1,1-dioxo-1,2-dihydro-1λ^6-benzo[1,2,4]thiadiazin-7-yl}-methanesulfonamide]", "values": [
      {"measurement": "EC50", "setting": "read-out: EC50 (1b)", "value": "5 to 25", "unit": "nM"},
      {"measurement": "EC50", "setting": "[1]", "value": "< 25", "unit": "nM"}
    ]}
  ]
}
